This note sets out measurements from the METLIN SMRT retention time set (Domingo-Almenara et al. 2019).

A short description of the series: gradient 5% acetonitrile 3 min, to 50% in 2 min, to 85% in 15 min, held 3 min, 100 µL/min. Particulars: column: Zorbax Extend-C18 2.1 x 50 mm; eluents: water / acetonitrile, 0.1% formic acid. In a few lines:
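Mixtures of ~100 pure standards were chromatographed on a Zorbax Extend-C18 column (2.1 × 50 mm, 1.8 μm) at 100 μL/min using water and acetonitrile, each with 0.1% formic acid. Detection used a quadrupole time-of-flight mass spectrometer in positive and negative ionization mode, and data collection spanned 3 months. Retention time was obtained from adduct peaks picked computationally and each checked manually.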
`CC(C)n1cnc(S(=O)(=O)N2CCC(C(=O)Nc3ccc4c(c3)OCO4)CC2)c1`: the RP-LC retention time is 722 s.

The compound `CCOc1ccc(-n2ccnc(NC(=O)Nc3ccc(C)c(C)c3)c2=O)cc1` had an RP-LC retention time of 1090 s. `CCc1nn2c(CNS(=O)(=O)c3ccc(F)c(C)c3)c(-c3ccccc3)nc2s1` yielded an RP-LC retention time of 974 s.

In turn, `Cc1cccc(NC(=O)Cn2ccc3ccn(C)c3c2=O)c1C` gave an RP-LC retention time of 761 s. `CCn1cc(CN2CCC(N3C(=O)C4(CCCCC4)C3c3ccccc3)CC2)cn1` (centres undefined) returned an RP-LC retention time of 681 s. In turn, `CC(C)CN1N=C(C(=O)N2CCOCC2)S(=O)(=O)c2ccc(Cl)cc21` displayed an RP-LC retention time of 813 s. `Cn1nc(C(=O)N2CCOCC2)c2c1CN(C(=O)Cc1ccsc1)C2`: the RP-LC retention time is 640 s. `Cc1ccc(N2CCC(NC(=O)c3ccc(F)c(F)c3)C2=O)cc1C` (centres undefined) returned an RP-LC retention time of 918 s. The result for `O=S(=O)(c1ccccc1)N1CCC(c2noc(-c3ccc(Cl)cc3)n2)CC1` reads 1170 s.

As to `CC1(C(=O)NCc2ccccc2Cl)Cn2cnc(C(=O)NC3CCCCC3)c2C(=O)N1C1CC1` (centres undefined), the RP-LC retention time worked out at 840 s. `Cc1ccc(-c2noc(-c3cccc(S(=O)(=O)NCCCN4CCC(C)CC4)c3)n2)cc1` came in with an RP-LC retention time of 826 s. Regarding `COc1ccc(C(=O)Nc2cc(-c3cccnc3)no2)c(C)c1`, the RP-LC retention time is 760 s. The same measure for `CNC(=O)Nc1ccc(C2(C(=O)NC3CCCC3)CCC2)cc1`: 692 s; for `COCCNC(=O)Cn1nc(-c2ccc(Cl)cc2)c2c(C)onc2c1=O`: 749 s; for `O=C(O)c1cc(NS(=O)(=O)c2ccccc2C(F)(F)F)cc(C(=O)O)c1`: 660 s. As to `CCN1CCN(CCNC(=O)Cn2c(=O)c3cccn3c3ccc(F)cc32)CC1`, the RP-LC retention time was 589 s. In turn, `Cc1cc(C)c(CNC(=O)c2cn3ccccc3n2)c(C)c1` yielded an RP-LC retention time of 783 s. Compound `O=C(NC1CCN(c2cc(-c3ccccc3)[nH]n2)C1)c1ccccc1Cl` (centres undefined) returned an RP-LC retention time of 692 s.

As for `Cc1cc2cc(CN3C(=O)c4ccccc4C3=O)ccc2[nH]1`, the RP-LC retention time is 866 s.

As for `CC(C)NC(=O)Cc1nnc2cc(-c3nc(C4CC4)no3)ccn12`, the RP-LC retention time was 777 s. The result for `CCOCCCNC(=O)CCCn1c2ccccc2c2cnn(C)c(=O)c21` reads 728 s; that for `Cc1ccc(-c2ccc(=O)n(Cc3nc(-c4ccc(F)cc4)no3)n2)cc1`, 1090 s. The same measure for `CSc1ccc(-c2nc3ccc(Cl)cn3c2Nc2ccc(Cl)cc2)cc1`: 993 s. Take `Cc1cnc(C2CN(Cc3cccnc3)C2)n1Cc1ccccc1`: the RP-LC retention time was found to be 536 s. The same measure for `COc1ccccc1CC(=O)Nc1cccn2c(C)nnc12`: 678 s; for `CCCn1nnc2cc(-c3noc(C4CC(=O)N(c5ccc(C)c(C)c5)C4)n3)ccc21` (centres undefined): 1020 s.

Take `COc1cccc(CNC(=O)C2CCN(c3ccc(SCc4ccccc4)nn3)CC2)c1`: the RP-LC retention time came out at 758 s.

For the compound `COc1ccc2c(c1)CC(NC(=O)NCCCN1CCN(Cc3ccccc3)CC1)CO2` (centres undefined), the RP-LC retention time is 634 s. With `O=C(C1CC1)N1c2ccccc2CC1c1nc(C2CC2)no1` (centres undefined), the RP-LC retention time is 908 s. The same measure for `CC(C)Cn1nc(CNC(=O)c2ccsc2)c2ccccc21`: 882 s; for `Cc1cc(C)cc(-n2ccn3c(CCCC(=O)N4CCN(c5ccccn5)CC4)nnc3c2=O)c1`: 616 s. In the case of `CC1Oc2ccc(S(=O)(=O)N3CCC(C(=O)N4CCN(c5ccccc5)CC4)CC3)cc2NC1=O` (centres undefined), the RP-LC retention time turned out to be 848 s.

For the compound `CCCC(=O)Nc1ccc2nc(N3CCN(CC)CC3)cc(C)c2c1`, the RP-LC retention time was 560 s. With `CN(C)C(=O)c1ccc2c(c1)nc(CN(C)C(=O)Nc1ccc(Cl)cc1)n2C`, the RP-LC retention time stood at 616 s. `O=C(NCCc1ccc(F)cc1)C1CC(=O)N(CCc2c[nH]c3ccc(Cl)cc23)C1` (centres undefined): the RP-LC retention time was determined as 830 s. `Cc1cccc(NC(=O)C2(C)CCCCC(=O)N2)c1` (centres undefined) yielded an RP-LC retention time of 695 s. With `COc1ccc(NC(=O)c2cn3c(n2)CCCC3)cc1F`, the RP-LC retention time worked out at 601 s. In the case of `O=C(Cc1cccs1)N1CCC[C@H]1c1nc(-c2ccccc2)n[nH]1`, the RP-LC retention time was found to be 711 s. The result for `Cc1cccc(C(=O)Nc2nc(-c3ccc4c(c3)NC(=O)CO4)c(C)s2)c1` reads 918 s; that for `CCCN1CCN(C(=O)C2CCCN(S(=O)(=O)c3cc(-c4noc(CC)n4)cs3)C2)CC1` (centres undefined), 665 s. In turn, `CCc1ccc(NS(=O)(=O)c2ccc3c(c2)C(=O)N(CC)c2ncccc2O3)cc1` displayed an RP-LC retention time of 1020 s. Turning to `CC1CCN(Cc2csc(N3CCN(C(=O)CSc4ccccc4)CC3)n2)CC1`, the RP-LC retention time is 1130 s. In turn, `O=C(Cc1nnc2c(-c3nc(C4CC4)no3)cccn12)N1CCSCC1` had an RP-LC retention time of 653 s. In turn, `Cn1c(N)c(S(=O)(=O)Nc2ccc(Br)cc2)c(=O)n(C)c1=O` yielded an RP-LC retention time of 672 s. Turning to `c1ccc2oc(SCc3cn4ccsc4n3)nc2c1`, the RP-LC retention time came to 653 s.

Take `O=C(NCCc1ccco1)c1c(-c2ccccc2)nnc2ccccc12`: the RP-LC retention time stood at 784 s. Regarding `CCn1c(C(=O)NCCCN2CCCC(C)C2)c(N2CCCC2=O)c2cc(F)ccc21` (centres undefined), the RP-LC retention time is 660 s. The same measure for `Cc1cc(C)cc(NC(=O)COc2cccc3c(=O)n(C)ccc23)c1`: 844 s. With `COCCNC(=O)C1CCN(c2nc3ccc(-c4cccs4)nc3s2)CC1`, the RP-LC retention time was 774 s.

Compound `CCN1CCN(C(=O)C2CCc3sc(C(=O)N(CC)CC)cc3C2)CC1` (centres undefined) yielded an RP-LC retention time of 683 s. Compound `Cc1ccc(NS(=O)(=O)c2cc3c(s2)CCN(C(=O)C2CCC2)C3)cc1F` displayed an RP-LC retention time of 911 s. For `COc1ccc2c(CCNC(=O)c3cccs3)c[nH]c2c1`, the RP-LC retention time came out at 764 s. `Cc1cccc(NC(=O)Cn2nc3n(c2=O)CCCC3)c1C` showed an RP-LC retention time of 632 s. As for `CCOC(=O)c1cn(Cc2ccc(C)cc2)c2nc(C)ccc2c1=O`, the RP-LC retention time was 861 s. Regarding `CC1=C2C(=O)[C@H]3[C@@H](CC=C4C[C@@H](O)CC[C@@]43C)[C@@H]2CC[C@]12O[C@@H]1C[C@H](C)CN[C@H]1C2C` (some centres undefined), the RP-LC retention time is 699 s. In turn, `COc1ccc(OC)c(Nc2c(-c3ccc(Cl)cc3)nc3cnccn23)c1` came in with an RP-LC retention time of 968 s. In turn, `CCOC(=O)c1c(C)[nH]c(CCC(=O)NCCc2c[nH]c3ccccc23)c1C` yielded an RP-LC retention time of 715 s. `Cc1ccc(NC(=O)Cn2nc3nc(N4CCCC(C)C4)ccn3c2=O)c(C)c1` (centres undefined) had an RP-LC retention time of 808 s. For `COc1ccc(OC)c(NC(=O)N2CCC(CN3CCC(C)CC3)CC2)c1`, the RP-LC retention time was determined as 626 s.

Compound `COc1ccc(CCc2nc3nccc(-c4ccc(F)cc4)n3n2)cc1OC` registered an RP-LC retention time of 865 s. `Brc1ccc(-c2nc(NCCC3=CCCCC3)c3ccccc3n2)cc1` returned an RP-LC retention time of 1010 s.

As to `O=C(Cn1c(=O)n(-c2ccc(F)cc2)c2ncccc21)NCCCN1CCOCC1`, the RP-LC retention time turned out to be 804 s. As to `CCCn1c(=O)sc2cc(S(=O)(=O)N3CCC(C(=O)Nc4ccc(C)c(F)c4)CC3)ccc21`, the RP-LC retention time is 1060 s. Take `CCN1CCCn2cc(S(=O)(=O)Nc3ccc(Cl)cc3)cc2C1=O`: the RP-LC retention time came to 765 s.

As for `O=C(Nc1cc(F)ccc1F)c1c(O)c2cccnc2n(-c2cccc(F)c2)c1=O`, the RP-LC retention time is 1260 s.

Take `COc1ccccc1NC(=O)C1CCCN(c2ncnc3c2nc2n3CCCCC2)C1` (centres undefined): the RP-LC retention time is 805 s.

`O=C(Cn1cnc2c(sc3nc(-c4ccccc4)ccc32)c1=O)Nc1cccc(Cl)c1` showed an RP-LC retention time of 1080 s. In the case of `O=C(NCc1ccc(F)cc1F)C1CCCN(c2nc3ccsc3c(=O)n2Cc2ccccc2)C1` (centres undefined), the RP-LC retention time is 938 s.

For `Cc1cc2oc(=O)c(C)c(C)c2c2c1C(=O)CC(c1ccc3c(c1)OCO3)O2` (centres undefined), the RP-LC retention time was found to be 1110 s. Compound `COc1ccc(Cl)cc1NC(=O)CCc1c(C)nn(-c2cc(N(C)C)ncn2)c1C` had an RP-LC retention time of 940 s. As for `COc1ccc(Cl)cc1S(=O)(=O)N1CCCC(C(=O)Nc2ccc(C)c(C)c2)C1` (centres undefined), the RP-LC retention time was 1080 s.

The compound `Cn1nc(-c2ccsc2)nc1C1CN(S(=O)(=O)c2cccnc2)C1` displayed an RP-LC retention time of 712 s. The same measure for `CCn1c(=O)oc2cc(-c3noc(-c4ccnn4C)n3)ccc21`: 903 s. Compound `CS(=O)(=O)N(Cc1ccncc1)C1CN(S(=O)(=O)c2ccccc2)C1` yielded an RP-LC retention time of 595 s. The result for `CCn1ccc(C(=O)NCC2Cn3cccc3C(=O)N2C)n1` (centres undefined) reads 596 s. The compound `Cc1ccc(-c2nc3cnccn3c2Nc2cccc(C(=O)O)c2)cc1` displayed an RP-LC retention time of 711 s. The same measure for `Cc1oc(C2CCN(C(=O)Nc3cc(F)cc(F)c3)CC2)nc1C(=O)N1CCCC1`: 917 s.

Compound `COc1ccc(NC(=O)c2c(C)oc3nc(C)nc(N4CCCC4)c23)cc1` gave an RP-LC retention time of 704 s. The result for `O=C(CCn1cnc2cc(-c3noc(COc4ccc(Cl)cc4)n3)ccc21)N1CCCCCC1` reads 884 s.
